# Experimental data published in article PMC12504763, “Antiproliferation, 3D-multicellular spheroid and VEGFR-2 inhibitory properties of spiroindolin-2-ones with phosphonate function” (Scientific Reports, 2025).
# Like-named read-outs stand apart in the source and are kept apart here.
# Tests used:
# [1] = tested on: TNF-α; experiment: TNF-α inhibitory properties (ELISA), PaCa2 cell lysate; format: cell-based, human; details: at 10 μM; for TNF-α pg/mL (± SEM) PaCa2: control 111.8 ± 2.0
# [2] = tested on: RPE1 (normal human immortalized retinal pigment epithelial cell line); experiment: cells; format: cell-based; details: for IC50: Homo sapiens, RPE-1, MTT, normal RPE1 cell, read-out: IC50, μM ± SEM RPE1
# [3] = tested on: TNF-α; experiment: TNF-α inhibitory properties (ELISA), HCT116 cell lysate; format: cell-based, human; details: at 10 μM; for TNF-α pg/mL (± SEM) HCT116: control 95.74 ± 0.5
# [4] = target: T1, COX-1 (Ovis aries, UniProt P05979); experiment: biochemical; details: 3 replicates, read-out: % Inhibition of COX-1 ± SEM
# T1 construct: purchased BioVision incorporated USA K548–100
# T1 sequence (P05979 25-600): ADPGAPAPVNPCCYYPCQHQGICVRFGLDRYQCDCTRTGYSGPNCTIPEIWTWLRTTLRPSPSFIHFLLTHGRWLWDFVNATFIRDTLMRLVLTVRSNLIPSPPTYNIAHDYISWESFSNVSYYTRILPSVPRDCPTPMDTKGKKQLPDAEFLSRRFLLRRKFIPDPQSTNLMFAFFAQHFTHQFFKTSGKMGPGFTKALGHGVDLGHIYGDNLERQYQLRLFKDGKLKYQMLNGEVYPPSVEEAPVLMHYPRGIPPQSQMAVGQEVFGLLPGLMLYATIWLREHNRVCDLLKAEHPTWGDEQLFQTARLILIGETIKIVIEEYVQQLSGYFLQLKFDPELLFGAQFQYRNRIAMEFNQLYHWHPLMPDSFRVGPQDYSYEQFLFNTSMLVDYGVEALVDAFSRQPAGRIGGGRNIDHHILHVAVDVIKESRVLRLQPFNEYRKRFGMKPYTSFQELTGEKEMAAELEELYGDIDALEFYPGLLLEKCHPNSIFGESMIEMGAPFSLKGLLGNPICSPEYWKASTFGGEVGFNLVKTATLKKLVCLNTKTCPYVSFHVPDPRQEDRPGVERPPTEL
# [5] = tested on: PaCa2 (pancreatic) cancer cell line; experiment: 2D-monolayer antiproliferation (MTT) against PaCa2; format: cell-based, human; details: for 1/(observed property): 1/observed IC50 (μM), PaCa2; for IC50: Homo sapiens, PaCa-2, MTT, 72 h incubation, PaCa2 pancreatic, read-out: IC50, μM ± SEM PaCa2; for SI (selectivity index) PaCa2: IC50 of RPE1 normal cell/IC50 of PaCa2
# [6] = tested on: A549 (lung) cancer cell line; experiment: 2D-monolayer antiproliferation (MTT) against A549; format: cell-based, human; details: for IC50: Homo sapiens, MTT, 72 h incubation, A549 lung, read-out: IC50, μM ± SEM A549; for SI (selectivity index) A549: IC50 of RPE1 normal cell/IC50 of A549
# [7] = target: T2, VEGFR-2 (Homo sapiens, UniProt P35968); experiment: cell-based; format: cell-based; details: for inhibition at 10 µM: MCF7; for VEGFR-2 pg/mL ± SEM MCF7: at 10 μM, control 258.70 ± 2.3
# T2 construct: endogenous in cells; host or cells: HCT116, PaCa2, MCF7 (human cancer cell lines, ATCC origin)
# [8] = target: T2, VEGFR-2; experiment: cell-based; format: cell-based; details: for inhibition at 10 µM: HCT-116, HCT116; for VEGFR-2 pg/mL ± SEM HCT116: at 10 μM, control 317.80 ± 3.5
# [9] = target: T2, VEGFR-2; experiment: cell-based; format: cell-based; details: for inhibition at 10 µM: PaCa-2, PaCa2; for VEGFR-2 pg/mL ± SEM PaCa2: at 10 μM, control 326.80 ± 1.9
# [10] = tested on: MCF7 (breast) cancer cell line; experiment: 2D-monolayer antiproliferation (MTT) against MCF7; format: cell-based, human; details: for IC50: Homo sapiens, MTT, 72 h incubation, MCF7 breast, read-out: IC50, μM ± SEM MCF7; for SI (selectivity index) MCF7: IC50 of RPE1 normal cell/IC50 of MCF7
# [11] = tested on: HCT116 (colon) cancer cell line; experiment: 2D-monolayer antiproliferation (MTT) against HCT116; format: cell-based, human; details: for IC50: Homo sapiens, HCT-116; for SI (selectivity index) HCT116: IC50 of RPE1 normal cell/IC50 of HCT116
# [12] = tested on: TNF-α; experiment: TNF-α inhibitory properties (ELISA), MCF7 cell lysate; format: cell-based, human; details: at 10 μM; for TNF-α pg/mL (± SEM) MCF7: control 83.26 ± 1.1
# [13] = target: T3, COX-2 (Homo sapiens, UniProt P35354); experiment: biochemical; details: for inhibition at 10 µM: 3 replicates, read-out: % Inhibition of COX-2 ± SEM; for SI (selectivity index, COX-2/COX-1): at 10 μM
# T3 construct: purchased BioVision incorporated USA K548–100
# T3 sequence (P35354 18-604): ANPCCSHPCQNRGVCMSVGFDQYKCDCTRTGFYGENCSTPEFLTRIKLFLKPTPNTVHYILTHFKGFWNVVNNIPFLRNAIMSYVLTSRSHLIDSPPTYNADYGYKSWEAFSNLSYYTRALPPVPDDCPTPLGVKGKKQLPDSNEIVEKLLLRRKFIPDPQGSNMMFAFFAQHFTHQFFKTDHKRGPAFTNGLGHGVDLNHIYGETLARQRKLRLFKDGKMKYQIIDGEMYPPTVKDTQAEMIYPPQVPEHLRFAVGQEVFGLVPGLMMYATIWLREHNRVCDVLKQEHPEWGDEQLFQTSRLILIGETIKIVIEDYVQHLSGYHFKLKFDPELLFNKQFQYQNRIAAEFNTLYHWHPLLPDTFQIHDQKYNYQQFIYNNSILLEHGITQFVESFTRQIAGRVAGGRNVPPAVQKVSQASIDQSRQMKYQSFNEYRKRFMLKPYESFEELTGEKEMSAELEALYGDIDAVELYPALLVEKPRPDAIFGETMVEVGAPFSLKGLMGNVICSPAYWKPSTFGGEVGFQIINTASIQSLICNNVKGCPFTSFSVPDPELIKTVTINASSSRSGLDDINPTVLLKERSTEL
# [14] = MTT, 72 h incubation, HCT116 colon, read-out: IC50, μM ± SEM HCT116
# [15] = log of observed IC50 (μM), HCT116, read-out: Log(observed property) (converted)
# T2 sequence (P35968 20-1356): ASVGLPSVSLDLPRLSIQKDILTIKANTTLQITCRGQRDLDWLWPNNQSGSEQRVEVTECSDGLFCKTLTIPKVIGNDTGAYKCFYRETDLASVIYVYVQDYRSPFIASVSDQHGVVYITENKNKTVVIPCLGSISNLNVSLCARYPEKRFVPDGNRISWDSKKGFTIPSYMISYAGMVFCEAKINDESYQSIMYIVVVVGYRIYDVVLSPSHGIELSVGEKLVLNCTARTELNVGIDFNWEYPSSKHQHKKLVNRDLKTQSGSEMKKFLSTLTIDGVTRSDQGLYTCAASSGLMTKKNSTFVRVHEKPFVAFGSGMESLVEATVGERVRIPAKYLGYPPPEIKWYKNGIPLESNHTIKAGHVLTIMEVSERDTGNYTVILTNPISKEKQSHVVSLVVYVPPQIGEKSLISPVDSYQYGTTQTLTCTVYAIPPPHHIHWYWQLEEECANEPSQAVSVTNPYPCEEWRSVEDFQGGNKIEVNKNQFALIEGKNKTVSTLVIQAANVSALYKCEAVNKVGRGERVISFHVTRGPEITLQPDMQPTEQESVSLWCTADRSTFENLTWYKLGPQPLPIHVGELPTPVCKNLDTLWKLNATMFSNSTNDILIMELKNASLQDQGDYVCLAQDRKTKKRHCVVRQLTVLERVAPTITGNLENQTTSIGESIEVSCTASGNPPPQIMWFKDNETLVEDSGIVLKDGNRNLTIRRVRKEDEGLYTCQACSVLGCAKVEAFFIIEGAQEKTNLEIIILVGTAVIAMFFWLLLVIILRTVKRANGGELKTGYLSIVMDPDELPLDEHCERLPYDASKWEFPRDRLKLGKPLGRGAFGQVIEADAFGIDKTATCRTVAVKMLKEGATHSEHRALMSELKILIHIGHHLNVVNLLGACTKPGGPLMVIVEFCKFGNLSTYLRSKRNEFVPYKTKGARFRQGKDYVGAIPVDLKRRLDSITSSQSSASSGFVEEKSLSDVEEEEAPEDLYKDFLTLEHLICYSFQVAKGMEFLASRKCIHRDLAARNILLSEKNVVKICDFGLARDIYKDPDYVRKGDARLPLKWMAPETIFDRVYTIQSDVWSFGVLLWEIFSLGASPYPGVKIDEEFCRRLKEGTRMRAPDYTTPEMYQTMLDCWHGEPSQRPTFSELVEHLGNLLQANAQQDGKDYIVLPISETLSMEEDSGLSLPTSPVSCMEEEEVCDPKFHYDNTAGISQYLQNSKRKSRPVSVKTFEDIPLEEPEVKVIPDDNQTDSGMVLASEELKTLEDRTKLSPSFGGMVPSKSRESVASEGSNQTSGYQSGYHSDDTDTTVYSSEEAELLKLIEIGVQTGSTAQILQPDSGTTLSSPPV
Compound,TNF-α % inhibition PaCa2 [1] [%],TNF-α pg/mL (± SEM) PaCa2 [1] [pg/mL],IC50 [2] [µM],TNF-α pg/mL (± SEM) HCT116 [3] [pg/mL],inhibition at 10 µM [4] [%],1/(observed property) [5],IC50 [5] [µM],SI (selectivity index) PaCa2 [5],IC50 [6] [µM],SI (selectivity index) A549 [6],inhibition at 10 µM [7] [%],VEGFR-2 pg/mL ± SEM MCF7 [7] [pg/mL],inhibition at 10 µM [8] [%],VEGFR-2 pg/mL ± SEM HCT116 [8] [pg/mL],inhibition at 10 µM [9] [%],VEGFR-2 pg/mL ± SEM PaCa2 [9] [pg/mL],IC50 [10] [µM],SI (selectivity index) MCF7 [10],"IC50 [11, 14] [µM]","IC50 [11, 15] [µM]",further results
"CCOP(=O)(OCC)N1C/C(=C\c2ccc(C)cc2)C(=O)C2(C1)C(c1ccc(C)cc1)CN(C)C21C(=O)Nc2ccc(Cl)cc21 (stereo not drawn) [Compound 17o, Diethyl (E)-[5-chloro-1′-methyl-5′′-(4-methylbenzylidene)-2,4′′-dioxo-4′-(p-tolyl)dispiro[indoline-3,2′-pyrrolidine-3′,3′′-piperidin]-1′′-yl]phosphonate]",14.5,95.6 ± 2.2,> 50,86.34 ± 0.9,61.7 ± 3.4,0.1594,6.27 ± 0.148,> 8.0,36 ± 1.15,> 1.3,85,38.70 ± 0.4,84.8,48.40 ± 0.6,90.3,31.64 ± 1.9,4.67 ± 0.086,> 10.7,3.76 ± 0.064,3.76,"selectivity index (SI) ([2]; IC50 against RPE1 compared to the tested cancer cell line(s), in words): high selectivity index; TNF-α % inhibition HCT116 [3]: 9.8%; SI (selectivity index) HCT116 [11]: > 13.3; TNF-α % inhibition MCF7 [12]: 1.7%; TNF-α pg/mL (± SEM) MCF7 [12]: 81.85 ± 3.1 pg/mL; inhibition at 10 µM [13]: 59.3 ± 2.4%; SI (selectivity index, COX-2/COX-1) [13]: 1.14"
"CCOP(=O)(OCC)N1C/C(=C\c2cccs2)C(=O)C2(C1)C(c1cccs1)CN(C)C21C(=O)Nc2ccccc21 (stereo not drawn) [Compound 17q, Diethyl (E)-[1′-methyl-2,4′′-dioxo-4′-(thiophen-2-yl)-5′′-(thiophen-2-ylmethylene)dispiro[indoline-3,2′-pyrrolidine-3′,3′′-piperidin]-1′′-yl]phosphonate]",17.9,91.8 ± 2.7,27.2 ± 0.813,84.26 ± 0.8,61.3 ± 1.5,0.07485,13.4 ± 0.325,2.0,24.51 ± 0.204,1.1,43.7,145.70 ± 1.9,58.4,132.30 ± 0.9,58.5,135.70 ± 1.7,9.13 ± 0.314,3.0,11.8 ± 0.4,11.8,"TNF-α % inhibition HCT116 [3]: 12.0%; SI (selectivity index) HCT116 [11]: 2.3; TNF-α % inhibition MCF7 [12]: 3.1%; TNF-α pg/mL (± SEM) MCF7 [12]: 80.67 ± 2.8 pg/mL; inhibition at 10 µM [13]: 62.1 ± 3.1%; SI (selectivity index, COX-2/COX-1) [13]: 0.93"
"CCOP(=O)(OCC)N1C/C(=C\c2cccs2)C(=O)C2(C1)C(c1cccs1)CN(C)C21C(=O)Nc2ccc(F)cc21 (stereo not drawn) [Compound 17r, Diethyl (E)-(5-fluoro-1′-methyl-2,4′′-dioxo-4′-(thiophen-2-yl)-5′′-(thiophen-2-ylmethylene)dispiro[indoline-3,2′-pyrrolidine-3′,3′′-piperidin]-1′′-yl)phosphonate]",75.4,27.5 ± 0.5,17 ± 0.557,27.45 ± 1.4,55.5 ± 2.6,0.1206,8.29 ± 0.497,2.1,14.18 ± 0.135,1.2,67.4,84.30 ± 1.0,78.8,67.34 ± 0.4,79.6,66.53 ± 0.8,6.22 ± 0.082,2.7,7.67 ± 0.379,7.67,"SI (selectivity index) HCT116 [11]: 2.2; TNF-α % inhibition MCF7 [12]: 69.4%; TNF-α pg/mL (± SEM) MCF7 [12]: 25.46 ± 0.9 pg/mL; inhibition at 10 µM [13]: 51.8 ± 2%; SI (selectivity index, COX-2/COX-1) [13]: 1.09"
